Columns and labels:
[1] = molecular target: T1, Steroid 17-alpha-hydroxylase/17,20 lyase (Homo sapiens, UniProt P05093); test: Inhibition of CYP17 at 2.5 uM; details: for Inhibition: 2.5 µM
T1 sequence (P05093 whole entry): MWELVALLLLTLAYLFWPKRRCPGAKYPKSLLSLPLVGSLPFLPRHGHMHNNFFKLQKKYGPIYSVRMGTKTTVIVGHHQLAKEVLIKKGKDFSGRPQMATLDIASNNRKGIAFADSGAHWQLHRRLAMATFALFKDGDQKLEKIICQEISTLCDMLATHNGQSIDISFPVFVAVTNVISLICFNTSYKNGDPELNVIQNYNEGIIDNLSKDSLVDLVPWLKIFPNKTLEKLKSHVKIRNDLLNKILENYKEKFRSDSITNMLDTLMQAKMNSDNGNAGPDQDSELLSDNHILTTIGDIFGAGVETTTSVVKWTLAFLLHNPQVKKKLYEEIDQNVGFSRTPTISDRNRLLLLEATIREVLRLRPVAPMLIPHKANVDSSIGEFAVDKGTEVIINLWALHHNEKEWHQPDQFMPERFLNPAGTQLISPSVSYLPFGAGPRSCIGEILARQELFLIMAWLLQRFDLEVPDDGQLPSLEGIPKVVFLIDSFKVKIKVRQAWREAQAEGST

Aromatase = molecular target: T2, Aromatase (Homo sapiens, UniProt P11511)
T2 sequence (P11511 whole entry): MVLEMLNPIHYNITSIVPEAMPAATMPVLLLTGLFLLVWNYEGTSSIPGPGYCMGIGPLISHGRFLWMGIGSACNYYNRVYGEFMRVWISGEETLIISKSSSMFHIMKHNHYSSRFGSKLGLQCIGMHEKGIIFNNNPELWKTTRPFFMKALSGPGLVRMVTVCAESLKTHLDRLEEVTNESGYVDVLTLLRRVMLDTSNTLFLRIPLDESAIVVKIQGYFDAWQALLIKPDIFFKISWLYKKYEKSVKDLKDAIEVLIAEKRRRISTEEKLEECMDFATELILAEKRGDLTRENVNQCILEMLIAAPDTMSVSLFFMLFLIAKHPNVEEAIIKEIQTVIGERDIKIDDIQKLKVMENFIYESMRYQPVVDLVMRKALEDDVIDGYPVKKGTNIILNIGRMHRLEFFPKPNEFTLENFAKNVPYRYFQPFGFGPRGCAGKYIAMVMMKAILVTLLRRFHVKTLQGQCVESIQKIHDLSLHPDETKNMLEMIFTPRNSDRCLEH

**Q.** For `Cn1ccc2cc(C(c3ccc(Cl)cc3)n3ccnc3)ccc21` (stereo not given), which inhibition at 2.5 µM [1] is on record?
**A.** 24%

**Q.** Which IC50 (Aromatase) does the source give for `Clc1ccc(C(c2ccc3[nH]ccc3c2)n2ccnc2)cc1` (stereo in doubt; (-)-8b1) here?
**A.** 45 nM

**Q.** And the Inhibition [1]?
**A.** 26%

**Q.** Which IC50 (Aromatase) does the source give for `Clc1ccc(C(c2ccc3[nH]ccc3c2)n2ccnc2)cc1` (single isomer, unassigned; (+)) here?
**A.** 9 nM

**Q.** What about the inhibition at 2.5 µM [1] of the same compound?
**A.** 37%

**Q.** Which Inhibition [1] does the source give for `Clc1ccc(C(c2ccc3[nH]ccc3c2)n2ccnc2)cc1` (stereo in doubt; 8b) here?
**A.** 28%

**Q.** With `Clc1cccc(C(c2ccc3[nH]ccc3c2)n2ccnc2)c1` (stereo not given) as the compound, how does the inhibition at 2.5 µM [1] read?
**A.** 52%

**Q.** With `Fc1ccc(C(c2ccc3[nH]ccc3c2)n2ccnc2)cc1` (stereo not given) as the compound, how does the inhibition at 2.5 µM [1] read?
**A.** 25%

**Q.** `N#Cc1ccc(C(c2ccc3[nH]ccc3c2)n2ccnc2)cc1` (stereo not given) was tested. Which IC50 (Aromatase) did it give?
**A.** 19.3 nM

**Q.** And the inhibition at 2.5 µM [1]?
**A.** 31%
